Reference: patent EP4603105A1, “PHARMACEUTICAL COMPOSITION CONTAINING CYCLIC COMPOUND HAVING SELECTIVE KRAS INHIBITORY EFFECT AGAINST HRAS AND NRAS” (CHUGAI SEIYAKU KABUSHIKI KAISHA, priority 2022, dated 2024)
Where two headings read alike, the source gives them in different places.

Assays:
[1] = molecular target: GDP-bound NRAS wild-type protein (Homo sapiens, UniProt P01111); test: Binding to NRAS by surface plasmon resonance (SPR), KD and KD ratio to KRAS
How it was run: (§1)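 Biotinylated GDP-bound RAS was captured at about 100–300 RU. Running buffer: HBS pH 7.4, 10 mM MgCl2, 10 µM GDP, 1 mM DTT, 0.01% Tween 20, 4% DMSO.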

[2] = system: human lung cancer strain NCI-H441; test: NCI-H441 cell proliferation inhibitory activity (CellTiter-Glo, 4 days); assay type: cell-based; settings: read-out: NCl-H441 IC50
How it was run: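 Step one: dispense the test compound in serial DMSO dilutions. Step three: add the reagent and measure […].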

[3] = molecular target: GDP-bound KRAS wild-type protein (Homo sapiens, UniProt P01116); test: Binding to KRAS by surface plasmon resonance (SPR), dissociation constant KD
How it was run: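 Compound binding is evaluated by SPR single-cycle kinetics, with concentrations added intermittently from low to high for 75 s each. Target surfaces carry GDP-loaded biotinylated Avi-RAS at about 100–300 RU, regenerated after each cycle; temperature 30°C. A 1:1 binding model gives KD.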

HRAS wild-type protein = HRAS wild-type protein (Homo sapiens, UniProt P01112); test: Binding to HRAS by surface plasmon resonance (SPR), KD and KD ratio to KRAS
How it was run: as §1

[4] = ratio of KD for GDP-bound NRAS wild-type protein to KD for KRAS
[5] = ratio of KD for HRAS wild-type protein to KD for KRAS
[6] = ratio of KD with respect to GDP-bound NRAS wild-type protein to KD with respect to KRAS
[7] = 50% proliferation inhibitory concentration, four days
[8] = Single Cycle Kinetics, 1:1 binding model
[9] = ratio of KD with respect to HRAS wild-type protein to KD with respect to KRAS

Sequence of GDP-bound NRAS wild-type protein (P01111 whole entry): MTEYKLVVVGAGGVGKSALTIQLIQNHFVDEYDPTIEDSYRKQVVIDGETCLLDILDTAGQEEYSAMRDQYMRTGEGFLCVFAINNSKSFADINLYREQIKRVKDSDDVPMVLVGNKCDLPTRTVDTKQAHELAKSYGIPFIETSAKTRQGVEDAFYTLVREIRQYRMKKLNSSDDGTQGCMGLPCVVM
Sequence of GDP-bound KRAS wild-type protein (P01116 1-188 isoform P01116-2): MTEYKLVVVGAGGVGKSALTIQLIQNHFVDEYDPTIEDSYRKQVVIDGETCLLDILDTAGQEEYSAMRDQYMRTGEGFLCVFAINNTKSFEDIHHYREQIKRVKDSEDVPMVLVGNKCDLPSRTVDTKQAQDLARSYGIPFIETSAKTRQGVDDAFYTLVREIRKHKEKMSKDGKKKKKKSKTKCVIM
Sequence of HRAS wild-type protein (P01112 whole entry): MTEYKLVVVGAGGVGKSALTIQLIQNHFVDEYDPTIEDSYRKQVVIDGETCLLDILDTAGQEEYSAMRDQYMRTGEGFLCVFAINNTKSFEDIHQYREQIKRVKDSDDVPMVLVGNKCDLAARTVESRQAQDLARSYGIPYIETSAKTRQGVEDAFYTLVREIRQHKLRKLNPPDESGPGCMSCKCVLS

Structure (SMILES) | NRAS /KRAS [1, 4] | IC50 ([2]; NCI-H441 cells, 4 days) | Kd ([3]; 1:1 binding model) | HRAS /KRAS (HRAS wild-type protein; [5]) | Kd ([3]; Single Cycle Kinetics) | NRAS /KRAS [1, 6] | IC50 [2, 7] | Kd [3, 8] | HRAS /KRAS (HRAS wild-type protein; [9])
CCC[C@H]1C(=O)N[C@@H]([C@@H](C)CC)C(=O)N(C2CC2)CC(=O)N(C)[C@H]2C/C=C\CCN(C2=O)[C@@H](CC2CCC(F)(F)CC2)C(=O)N(C)CC(=O)N[C@@H](CCc2ccc(C(F)(F)F)c(OC)c2)C(=O)N2C[C@@H](C)C[C@H]2C(=O)N(C)C2(CCC2)C(=O)N(C)[C@@H](C2CCCC2)C(=O)N(C)[C@H](C(=O)N(C)C)CC(=O)N1C [PP2378] | B (a compound having 3 or more and less than 10 is denoted as B) | 48.3 nM | 0.88 nM | A (a compound having 10 or more and less than 20 is denoted as A) |  |  |  |  | 
CCC(CC)[C@H]1C(=O)N(C)[C@H](C(=O)N(C)C)CC(=O)N(C)[C@@H](CC2CC2)C(=O)N[C@@H]([C@H](C)CC)C(=O)NCC(=O)N(C)[C@H]2C/C=C\CCN(C2=O)[C@@H](Cc2ccc(C(F)F)cc2)C(=O)N(C)CC(=O)N[C@@H](CCc2ccc(Cl)c(C(F)(F)F)c2)C(=O)N2C[C@H](OC(C)C)C[C@H]2C(=O)N(C)C2(CC(C)(C)C2)C(=O)N1C [PP3508] | A (a compound having 10 or more and less than 20 is denoted as A) | 57.2 nM |  | A (a compound having 10 or more and less than 20 is denoted as A) | 5.4 nM |  |  |  | 
CCC[C@H]1C(=O)N[C@@H]([C@@H](C)CC)C(=O)N(C)CC(=O)N(C)[C@H]2C/C=C\CCN(C2=O)[C@@H](Cc2ccc(C(F)(F)F)cc2)C(=O)N(C)CC(=O)N[C@@H](CCc2ccc(C(F)(F)F)c(OC)c2)C(=O)N2CC[C@H](OC)[C@H]2C(=O)N(C)C2(CCC2)C(=O)N(C)[C@@H](C2CCCC2)C(=O)N(C)[C@H](C(=O)N(C)C)CC(=O)N1C [PP3243] | A (a compound having 10 or more and less than 20 is denoted as A) | 5.3 nM |  | A (a compound having 10 or more and less than 20 is denoted as A) | 0.066 nM |  |  |  | 
CCCOC[C@H]1C(=O)N[C@@H](C2CCCC2)C(=O)N(CCC)CC(=O)N(C)[C@H]2C/C=C\CCN(C2=O)[C@@H](Cc2ccc(C(F)F)cc2)C(=O)N(C)CC(=O)N[C@@H](CCc2cc(F)c(C(F)(F)F)c(F)c2)C(=O)N2C[C@H](OC(C)C)C[C@H]2C(=O)N(C)C2(CCC2)C(=O)N(C)[C@@H](C(CC)CC)C(=O)N(C)[C@H](C(=O)N(C)C)CC(=O)N1C [PP3487] | A (a compound having 10 or more and less than 20 is denoted as A) | 39.8 nM |  | A (a compound having 10 or more and less than 20 is denoted as A) | 0.96 nM |  |  |  | 
CCCO[C@@H]1C[C@H]2C(=O)NC3(CC(C)(C)C3)C(=O)N(C)[C@@H](C3CCCC3)C(=O)N(C)[C@H](C(=O)N(C)CC)CC(=O)N(C)[C@@H](COCC)C(=O)N[C@@H]([C@@H](C)CC)C(=O)N3C[C@@H](F)C[C@H]3C(=O)N(C)[C@H]3C/C=C\CCN(C3=O)[C@@H](Cc3ccc(C(F)(F)F)cc3)C(=O)N(C)CC(=O)N[C@@H](CCc3ccc(C(F)(F)F)c(OC)c3)C(=O)N2C1 [PP3417] | A (a compound having 10 or more and less than 20 is denoted as A) | 13 nM |  | A (a compound having 10 or more and less than 20 is denoted as A) | 0.36 nM |  |  |  | 
CCOC[C@H]1C(=O)N[C@@H]([C@@H](C)CC)C(=O)N(C)CC(=O)N(C)[C@H]2C/C=C\CCN(C2=O)[C@@H](CC2CCC(F)(F)CC2)C(=O)N(C)CC(=O)N[C@@H](CCc2ccc(C(F)(F)F)c(OC)c2)C(=O)N2C[C@@H](C)C[C@H]2C(=O)NC2(CC(C)(C)C2)C(=O)N(C)[C@@H](C(CC)CC)C(=O)N(C)[C@H](C(=O)N(C)C)CC(=O)N1C [PP2458] | A (a compound having 10 or more and less than 20 is denoted as A) | 80.7 nM | 1.3 nM | A (a compound having 10 or more and less than 20 is denoted as A) |  |  |  |  | 
CCO[C@@H]1C[C@H]2C(=O)NC3(CCC3)C(=O)N(C)[C@@H](C(CC)CC)C(=O)N(C)[C@H](C(=O)N(C)C)CC(=O)N(C)[C@@H](C)C(=O)N[C@@H]([C@@H](C)CC)C(=O)N(C)CC(=O)N(C)[C@H]3C/C=C\CCN(C3=O)[C@@H](Cc3ccc(C(F)(F)F)cc3)C(=O)N(C)CC(=O)N[C@@H](CCc3ccc(Cl)c(Cl)c3)C(=O)N2C1 [PP1214] |  |  |  |  |  | AA (a compound having 20 or more is denoted as AA) | 93.4 nM | 0.34 nM | A (a compound having 10 or more and less than 20 is denoted as A)
CCO[C@@H]1C[C@H]2C(=O)OC3(CCC3)C(=O)N(C)[C@@H](C3CCCC3)C(=O)N(C)[C@H](C(=O)N(C)C)CC(=O)N(C)[C@@H](CC(C)C)C(=O)N[C@@H]([C@@H](C)CC)C(=O)N(C3CC3)CC(=O)N(C)[C@H]3C/C=C\CCN(C3=O)[C@@H](Cc3ccc(C)cc3)C(=O)N(C)CC(=O)N[C@@H](CCc3ccc(C(F)(F)F)c(OC)c3)C(=O)N2C1 [PP3381] | A (a compound having 10 or more and less than 20 is denoted as A) | 18.7 nM |  | A (a compound having 10 or more and less than 20 is denoted as A) | 1.1 nM |  |  |  | 
C=CC[C@H]1C(=O)N(C)[C@H](C(=O)N(C)C)CC(=O)N(C)[C@@H](CC(C)C)C(=O)N[C@@H]([C@@H](C)CC)C(=O)N(C)CC(=O)N(C)[C@H]2C/C=C\CCN(C2=O)[C@@H](Cc2ccc(C)cc2)C(=O)N(C)CC(=O)N[C@@H](CCc2cc(F)c(C(F)(F)F)c(F)c2)C(=O)N2C[C@H](OCC)C[C@H]2C(=O)N(C)C2(CCC2)C(=O)N1C [PP3348] | A (a compound having 10 or more and less than 20 is denoted as A) | 25.4 nM |  | A (a compound having 10 or more and less than 20 is denoted as A) | 1.4 nM |  |  |  | 
CCC(CC)[C@H]1C(=O)N(C)[C@H](C(=O)N(C)C)CC(=O)N(C)[C@@H](C(C)C)C(=O)N[C@@H]([C@@H](C)CC)C(=O)N(C)CC(=O)N(C)[C@H]2C/C=C\CCN(C2=O)[C@@H](CC2CCC(F)(F)CC2)C(=O)N(C)CC(=O)N[C@@H](CCc2cc(F)c(C(F)(F)F)c(F)c2)C(=O)N2C[C@@H](C)C[C@H]2C(=O)NC2(CC(C)(C)C2)C(=O)N1C [PP2496] | A (a compound having 10 or more and less than 20 is denoted as A) | 97.3 nM | 6.2 nM | A (a compound having 10 or more and less than 20 is denoted as A) |  |  |  |  | 
CCC(CC)[C@H]1C(=O)N(C)[C@H](C(=O)N(C)C)CC(=O)N(C)[C@@H](COC)C(=O)N[C@@H]([C@@H](C)CC)C(=O)N(C)CC(=O)N(C)[C@H]2C/C=C\CCN(C2=O)[C@@H](Cc2ccc(C(F)F)cc2)C(=O)N(C)CC(=O)N[C@@H](CCc2ccc(Cl)c(Cl)c2)C(=O)N2C[C@H](OC3CCCC3)C[C@H]2C(=O)NC2(CC(C)(C)C2)C(=O)N1C [PP2649] | AA (a compound having 20 or more is denoted as AA) | 61 nM | 0.4 nM | A (a compound having 10 or more and less than 20 is denoted as A) |  |  |  |  | 
CCO[C@@H]1C[C@H]2C(=O)NC3(CC(C)(C)C3)C(=O)N(C)[C@@H](C3CCCC3)C(=O)N(C)[C@H](C(=O)N(C)C)CC(=O)N(C)[C@@H]([C@H](C)OC)C(=O)N[C@@H]([C@@H](C)CC)C(=O)N(C)CC(=O)N(C)[C@H]3C/C=C\CCN(C3=O)[C@@H](Cc3ccc(C(F)(F)F)cc3)C(=O)N(C)CC(=O)N[C@@H](CCc3ccc(C(F)(F)F)c(Cl)c3)C(=O)N2C1 [PP3171] | A (a compound having 10 or more and less than 20 is denoted as A) | 15.9 nM |  | A (a compound having 10 or more and less than 20 is denoted as A) | 0.076 nM |  |  |  | 
CCO[C@@H]1C[C@H]2C(=O)NC3(CCC3)C(=O)N(C)[C@@H](C3CCCC3)C(=O)N(C)[C@H](C(=O)N3CCOCC3)CC(=O)N(C)[C@@H](CC3CCCCC3)C(=O)N[C@@H]([C@@H](C)CC)C(=O)N(C)CC(=O)N(C)[C@H]3C/C=C\CCN(C3=O)[C@@H](Cc3ccc(C)cc3)C(=O)N(C)CC(=O)N[C@@H](CCc3cc(F)c(C(F)(F)F)c(F)c3)C(=O)N2C1 [PP1420] |  |  |  |  |  | A (a compound having 10 or more and less than 20 is denoted as A) | 31.4 nM | 0.35 nM | A (a compound having 10 or more and less than 20 is denoted as A)
CCO[C@@H]1C[C@H]2C(=O)NC3(CCC3)C(=O)N(C)[C@@H](C3CCCC3)C(=O)N(C)[C@H](C(=O)N3CCOCC3)CC(=O)N(C)[C@@H](CC(C)C)C(=O)N[C@@H]([C@@H](C)CC)C(=O)N3CC[C@H]3C(=O)N(C)[C@H]3C[C@@H](C)[C@@H](C)CN(C3=O)[C@@H](Cc3ccc(C(F)(F)F)cc3)C(=O)N(C)CC(=O)N[C@@H](CCc3ccc(C(F)(F)F)c(Cl)c3)C(=O)N2C1 [PP1361] |  |  |  |  |  | A (a compound having 10 or more and less than 20 is denoted as A) | 6.2 nM | 0.15 nM | B (a compound having 3 or more and less than 10 is denoted as B)
CCO[C@@H]1C[C@H]2C(=O)NC3(CCC3)C(=O)N(C)[C@@H](C3CCCC3)C(=O)N(C)[C@@H](C(=O)N(C)C)CC(=O)N(C)[C@@H](CC)C(=O)N[C@@H]([C@@H](C)CC)C(=O)N(C)CC(=O)N(C)[C@H]3C/C=C\CCN(C3=O)[C@@H](Cc3ccc(C(F)(F)F)cc3)C(=O)N(C)CC(=O)N[C@@H](CCc3cc(F)c(C(F)(F)F)c(F)c3)C(=O)N2C1 [PP1234] |  |  |  |  |  | B (a compound having 3 or more and less than 10 is denoted as B) | 398 nM | 3.8 nM | C (A compound having a KD ratio of 0.1 or more and less than 3 is denoted as C)
